“Also recorded” adds a separate entry of the source.
Legend:
Type in all cases: cell-based, human
[1] = system: DMSO-differentiated HL-60 cells; assay: Energy use by DMSO-differentiated HL-60 cells; conditions: for activity at 30 µM / activity at 100 µM / activity at 330 µM / activity at 1000 µM / activity at 3300 µM / activity at 10000 µM / activity at 15000 µM / activity at 20000 µM: Homo sapiens, HL-60, 24 h, read-out: Energy Use by DMSO-Differentiated HL-60 Cells
In short: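 HL-60 cells, […] differentiated with 1.25% DMSO for 3 days, were plated at 5×10^4/well in DME-R with test energy sources at 0.033–20 mM final for 24 h at 37 °C. Viability was measured by MTS/PMS at 490 nm (ref 650 nm) 24 h after reagent addition. Values were background-subtracted using cell-free plates and expressed as % of the no-energy-source control.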

HL-60 cells = assay: Effect of 10 mM citric acid on HL-60 energy utilization; conditions: for Effect of 10 mM Citric Acid on HL-60 Energy Utilization: negative control without energy sources and without citric acid
HepG2 cells = HepG2 cells on flat bottom plastic wells, energy sources at a range of concentrations; conditions: for activity at 30 µM / activity at 100 µM / activity at 330 µM / activity at 1000 µM / activity at 3300 µM / activity at 10000 µM / activity at 15000 µM / activity at 20000 µM: Homo sapiens, HepG2, 72 h, read-out: HepG2 Cells Responses After 72 hours in Culture and a 4 hour Color Development Period
In short: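 HepG2 cells plated overnight at 4×10^4 cells/cm^2 in glucose-, glutamine- and pyruvate-free DME with 10% HI FBS, then exposed to each energy source at 0.033 to 20 mM final for 48 to 72 h at 37° C, 5% CO2. MTS/PMS colour read at 490 nm (reference 650 nm) after 4-24 h; cell-free plate OD subtracted, data normalised to % negative control (water, no energy source).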

[2] = energy source 0.03 mM with 10 mM citric acid
[3] = energy source 0.10 mM with 10 mM citric acid
[4] = energy source 0.33 mM with 10 mM citric acid
[5] = energy source 1.00 mM with 10 mM citric acid
[6] = energy source 3.3 mM with 10 mM citric acid
[7] = energy source 10 mM with 10 mM citric acid
[8] = energy source 15 mM with 10 mM citric acid
[9] = energy source 20 mM with 10 mM citric acid

Row | Compound | activity at 30 µM ([1]; Conc. 0.03 mM) [%] | activity at 100 µM ([1]; Conc. 0.10 mM) [%] | activity at 330 µM ([1]; Conc. 0.33 mM) [%] | activity at 1000 µM ([1]; Conc. 1.00 mM) [%] | activity at 3300 µM ([1]; Conc. 3.3 mM) [%] | activity at 10000 µM ([1]; Conc. 10 mM) [%] | activity at 15000 µM ([1]; Conc. 15 mM) [%] | activity at 20000 µM ([1]; Conc. 20 mM) [%] | Effect of 10 mM Citric Acid on HL-60 Energy Utilization (HL-60 cells; [2]) | Effect of 10 mM Citric Acid on HL-60 Energy Utilization (HL-60 cells; [3]) | Effect of 10 mM Citric Acid on HL-60 Energy Utilization (HL-60 cells; [4]) | Effect of 10 mM Citric Acid on HL-60 Energy Utilization (HL-60 cells; [5]) | Effect of 10 mM Citric Acid on HL-60 Energy Utilization (HL-60 cells; [6]) | Effect of 10 mM Citric Acid on HL-60 Energy Utilization (HL-60 cells; [7]) | Effect of 10 mM Citric Acid on HL-60 Energy Utilization (HL-60 cells; [8]) | Effect of 10 mM Citric Acid on HL-60 Energy Utilization (HL-60 cells; [9]) | activity at 30 µM (HepG2 cells; Conc. 0.03 mM) [%] | activity at 100 µM (HepG2 cells; Conc. 0.10 mM) [%] | activity at 330 µM (HepG2 cells; Conc. 0.33 mM) [%] | activity at 1000 µM (HepG2 cells; Conc. 1.00 mM) [%] | further results
1 | COC(=O)CCC(=O)O [mono methyl succinate] | 104 | 93.4 | 124 | 142 | 184 | 194 | 156 | 118 | 4.9 % of negative control | 13.0 % of negative control | 16.9 % of negative control | 51.7 % of negative control | 163.6 % of negative control | 210.0 % of negative control | 192.3 % of negative control | 173.9 % of negative control | 144 | 161 | 179 | 180 | activity at 3300 µM (HepG2 cells; Conc. 3.3 mM): 200%; activity at 10000 µM (HepG2 cells; Conc. 10 mM): 224%; activity at 15000 µM (HepG2 cells; Conc. 15 mM): 357%; activity at 20000 µM (HepG2 cells; Conc. 20 mM): 238%
2 | O=C1O[C@@H]([C@H](O)CO)[C@H](O)[C@H]1O [D-gal acid g-lactone] | – | – | – | – | – | – | – | – | 9.5 % of negative control | 20.9 % of negative control | 35.7 % of negative control | 63.3 % of negative control | 162.8 % of negative control | 151.5 % of negative control | 126.5 % of negative control | 115.7 % of negative control | – | – | – | – | Energy Use by DMSO-Differentiated HL-60 Cells ([1]; Conc. 0.03 mM): 111.9 % of negative control; Energy Use by DMSO-Differentiated HL-60 Cells ([1]; Conc. 0.10 mM): 122.9 % of negative control; Energy Use by DMSO-Differentiated HL-60 Cells ([1]; Conc. 0.33 mM): 133.3 % of negative control; Energy Use by DMSO-Differentiated HL-60 Cells ([1]; Conc. 1.00 mM): 157.1 % of negative control; Energy Use by DMSO-Differentiated HL-60 Cells ([1]; Conc. 3.3 mM): 185.9 % of negative control; Energy Use by DMSO-Differentiated HL-60 Cells ([1]; Conc. 10 mM): 166.9 % of negative control; Energy Use by DMSO-Differentiated HL-60 Cells ([1]; Conc. 15 mM): 130.4 % of negative control; Energy Use by DMSO-Differentiated HL-60 Cells ([1]; Conc. 20 mM): 99.2 % of negative control; HepG2 Cells Responses After 72 hours in Culture and a 4 hour Color Development Period (HepG2 cells; Conc. 0.03 mM): 111.3 % of negative control; HepG2 Cells Responses After 72 hours in Culture and a 4 hour Color Development Period (HepG2 cells; Conc. 0.10 mM): 142.3 % of negative control; HepG2 Cells Responses After 72 hours in Culture and a 4 hour Color Development Period (HepG2 cells; Conc. 0.33 mM): 164.7 % of negative control; HepG2 Cells Responses After 72 hours in Culture and a 4 hour Color Development Period (HepG2 cells; Conc. 1.00 mM): 162.9 % of negative control; HepG2 Cells Responses After 72 hours in Culture and a 4 hour Color Development Period (HepG2 cells; Conc. 3.3 mM): 157.3 % of negative control; HepG2 Cells Responses After 72 hours in Culture and a 4 hour Color Development Period (HepG2 cells; Conc. 10 mM): 178.4 % of negative control; HepG2 Cells Responses After 72 hours in Culture and a 4 hour Color Development Period (HepG2 cells; Conc. 15 mM): 239.3 % of negative control; HepG2 Cells Responses After 72 hours in Culture and a 4 hour Color Development Period (HepG2 cells; Conc. 20 mM): 207.6 % of negative control
3 | CC(C)[C@H](N)C(=O)O [L-valine] | 81.1 | 89.4 | 85.2 | 86.7 | 81.2 | 89.3 | 81.4 | 88.6 | 9.3 % of negative control | 13.4 % of negative control | 12.4 % of negative control | 12.7 % of negative control | 20.8 % of negative control | 32.2 % of negative control | 42.3 % of negative control | 64.5 % of negative control | 119 | 149 | 170 | 125 | activity at 3300 µM (HepG2 cells; Conc. 3.3 mM): 176%; activity at 10000 µM (HepG2 cells; Conc. 10 mM): 132%; activity at 15000 µM (HepG2 cells; Conc. 15 mM): 108%; activity at 20000 µM (HepG2 cells; Conc. 20 mM): 87.6%
4 | O=C[C@H](O)[C@@H](O)[C@@H](O)[C@H](O)C(=O)O [D-galacturonic acid] | 118 | 123 | 138 | 157 | 168 | 173 | 126 | 101 | 1.4 % of negative control | 12.8 % of negative control | 43.5 % of negative control | 61.8 % of negative control | 141.6 % of negative control | 177.0 % of negative control | 136.3 % of negative control | 110.8 % of negative control | 124 | 140 | 171 | 177 | cell activity in the presence of citric acid, in words (HL-60 cells; 10 mM citric acid): acitivity; also recorded: capable of overcoming the antiproliferative effects of citric acid; activity at 3300 µM (HepG2 cells; Conc. 3.3 mM): 165%; activity at 10000 µM (HepG2 cells; Conc. 10 mM): 179%; activity at 15000 µM (HepG2 cells; Conc. 15 mM): 228%; activity at 20000 µM (HepG2 cells; Conc. 20 mM): 162%

From patent publication US9274101B2 (BIOLOG, Inc., priority 2001, dated 2016)
